Values quoted from earlier work as cited in patent US20100056645A1, “Chromatographic Media and Chromatographic Equipment Storage Solutions and Use Thereof” (priority 2007, published 2010).

System: gram positive bacteria

For `OCc1ccccc1` [benzyl alcohol], the “pH of optimal bactericidal activity” value is given as less than 5.0.
